Experimental data from ChEMBL document CHEMBL3228010, “Potential antitumor agents. 29. Quantitative structure-activity relationships for the antileukemic bisquaternary ammonium heterocycles” (J Med Chem, 1979).

Key:
[1] = Displacement of ethidium from poly[d(A-T)]-poly[d(A-T)] DNA by fluorimetric method
L1210 [2] = test: Antitumor activity against mouse L1210 cells […] in ip dosed C3H X DBA2 F1 hybrid mouse on day 0 and dosed once daily on days 1 to 5 assessed as increase in life span relative to control; assay type: functional
Bos taurus = species on record: Bos taurus; test: Displacement of ethidium from calf thymus DNA by fluorimetric method
L1210 [3] = test: Antitumor activity against mouse L1210 cells […] in ip dosed C3H X DBA2 F1 hybrid mouse on day 0 and dosed at LD10 level once daily on days 1 to 5 assessed as increase in life span relative to control; assay type: functional
Mus musculus = test: Toxicity in ip dosed C3H X DBA2 F1 hybrid mouse […] with mouse L1210 cells on day 0 and dosed once daily on days 1 to 5 measured after 50 days; assay type: organism-based; settings: in vivo, 1200 h
[4] = Displacement of ethidium from poly[d(G-C)]-poly[d(G-C)] DNA (unknown origin) by fluorimetric method
[5] = Displacement of ethidium from poly[d(A)]-poly[d(T)] DNA (unknown origin) by fluorimetric method
[6] = Lipophilic-hydrophilic balance, Rm of the compound by partition chromatography; assay type: physicochemical

C[n+]1ccc(Nc2ccc(NC(=O)c3ccc(Nc4cc[n+](C)c5ccccc45)cc3)cc2)cc1.[Br-].[Br-]
C50 [1]: 0.16 µM
D40 (L1210 [2]): 2 mg/kg
C50 (Bos taurus): 1.4 µM
log(ILSmax) (L1210 [3]): 2.23
LD10 (Mus musculus): 13 mg/kg
C50 [4]: 3 µM
C50 [5]: 0.036 µM
Rm [6]: 0.29

C[n+]1ccc(Nc2ccc(NC(=O)c3ccc(C(=O)Nc4ccc(Nc5cc[n+](C)cc5)cc4)cc3)cc2)cc1.Cc1ccc(S(=O)(=O)[O-])cc1.Cc1ccc(S(=O)(=O)[O-])cc1
C50 [1]: 0.14 µM
D40 (L1210 [2]): 0.3 mg/kg
C50 (Bos taurus): 1.3 µM
log(ILSmax) (L1210 [3]): 2.33
LD10 (Mus musculus): 3.1 mg/kg
C50 [4]: 1.8 µM
C50 [5]: 0.043 µM
Rm [6]: 0.07

CC[n+]1ccc(Nc2ccc(NC(=O)c3ccc(Nc4cc[n+](CC)c5cc(N)ccc45)cc3N)cc2)cc1.[Br-].[Br-]
C50 [1]: 0.13 µM
D40 (L1210 [2]): 1.4 mg/kg
C50 (Bos taurus): 0.52 µM
log(ILSmax) (L1210 [3]): 2.39
LD10 (Mus musculus): 11 mg/kg
C50 [4]: 1.11 µM
C50 [5]: 0.054 µM
Rm [6]: 0.07

C[n+]1ccc(Nc2ccc(NC(=O)c3ccc(Nc4cc[n+](C)c5ccc(N)cc45)cc3)cc2)cc1.[Br-].[Br-]
C50 [1]: 0.09 µM
D40 (L1210 [2]): 1.2 mg/kg
C50 (Bos taurus): 0.66 µM
log(ILSmax) (L1210 [3]): 2.35
LD10 (Mus musculus): 12 mg/kg
C50 [4]: 1.05 µM
C50 [5]: 0.048 µM
Rm [6]: 0.07

C[n+]1ccc(Nc2ccc(NC(=O)c3ccc(Nc4cc[n+](C)c5ccc(N)cc45)cc3N)cc2)cc1.[I-].[I-]
C50 [1]: 0.1 µM
D40 (L1210 [2]): 2.9 mg/kg
C50 (Bos taurus): 0.49 µM
log(ILSmax) (L1210 [3]): 2.45
LD10 (Mus musculus): 20 mg/kg
C50 [4]: 1.1 µM
C50 [5]: 0.039 µM
Rm [6]: 0.01
